# Source: patent US9657022B2, “7-OXO-1,6-diazabicyclo[3.2.1]octane derivatives and their use as antibacterial agents” (WOCKHARDT LIMITED, priority 2014, dated 2017)
# Read-outs that look alike come from different tables or passages of the source.
# Tests used:
# [1] = test system: E. coli NCTC 13353 (CTX-M15, OXA-1); test: Antibacterial activity (MIC), agar dilution per CLSI; format: cell-based; conditions: Escherichia coli
# Protocol: (§1) The biological activity of representative compounds according to the invention against various bacterial strains was investigated. In a typical study, overnight grown bacterial cultures were diluted appropriately and inoculated on the agar media containing doubling dilutions of the test compounds. Observations for growth or no growth was performed after 16-20 hours of incubation at 35±2° C. in the ambient air. The overall procedure was performed as per Clinical and Laboratory Standards Institute (CLSI) recommendations, (Clinical and Laboratory Standards Institute (CLSI), Performance Standards for Antimicrobial Susceptibility Testing, 20th Informational Supplement, M07-A9, Volume 32, No. 2, 2012). Molten Mueller Hinton Agar (BD, USA) containing serial dilutions of each antibacterial agent were poured on to the plates and allowed to solidify. Appropriate suspensions from the freshly grown cultures were prepared in normal saline so that about 10^4 CFU/spot of the organism was delivered on to the drug containing agar plates using automated multipoint inoculator (Mast, UK). The plates were incubated in Biochemical oxygen demand (BOD) incubator at 37° C. for 18 hours and then examined for growth.
# (§2) The strains selected for study included E. coli NCTC 13353 producing CTX-M15 and OXA-1 beta-lactamase enzymes; K. pneumoniae H521 producing KPC, SHV, TEM beta-lactamase enzymes; and K. pneumoniae S48 producing NDM, SHV, TEM beta-lactamase enzymes. The activities are expressed as Minimum Inhibitory Concentrations (MICs) (mcg/ml).
# (§3) The activities are expressed as Minimum Inhibitory Concentrations (MICs) (mcg/ml).
# [2] = test system: K. pneumoniae S48 (NDM, SHV, TEM); test: as above; format: cell-based; conditions: Klebsiella pneumoniae
# Protocol: as §1, §2
# [3] = biological target: T1, Class D beta-lactamase OXA 23 (A. baumannii NCTC 13301) (Acinetobacter baumannii, UniProt Q9L4P2); test: Beta-lactamase enzyme inhibition (Nitrocefin, crude enzyme); format: biochemical; conditions: A. baumannii NCTC 13301 (OXA 23)
# T1 construct: preincubated mixture of crude enzyme and the compounds; endogenous in cells; host or cells: A. baumannii NCTC 13301
# T1 sequence (Q9L4P2 18-273): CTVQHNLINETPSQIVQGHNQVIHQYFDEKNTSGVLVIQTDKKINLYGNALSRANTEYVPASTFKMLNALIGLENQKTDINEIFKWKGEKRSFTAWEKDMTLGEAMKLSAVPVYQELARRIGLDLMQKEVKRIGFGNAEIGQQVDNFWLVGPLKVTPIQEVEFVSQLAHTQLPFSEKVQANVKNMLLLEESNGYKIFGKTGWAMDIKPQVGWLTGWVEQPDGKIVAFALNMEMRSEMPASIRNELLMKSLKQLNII
# Protocol: (§4) Absorbance was measured at 485 nm by UV-spectrophotometer. The IC50 was calculated by plotting absorbance against concentration through Sigmoidal dose response curve using Graph Pad software.
# (§5) The enzyme inhibition was expressed as IC50.
# [4] = biological target: T2, Class A beta-lactamase SHV 18 (K. pneumoniae ATCC 700603) (Klebsiella pneumoniae, UniProt P0AD64, E235K/G234A/I4F/R39S); test: as above; format: biochemical; conditions: Beta-lactamase enzyme inhibition IC50, Class A, K. pneumoniae ATCC 700603 (SHV 18)
# T2 sequence (P0AD64 1-286 I4F/R39S/G234A/E235K): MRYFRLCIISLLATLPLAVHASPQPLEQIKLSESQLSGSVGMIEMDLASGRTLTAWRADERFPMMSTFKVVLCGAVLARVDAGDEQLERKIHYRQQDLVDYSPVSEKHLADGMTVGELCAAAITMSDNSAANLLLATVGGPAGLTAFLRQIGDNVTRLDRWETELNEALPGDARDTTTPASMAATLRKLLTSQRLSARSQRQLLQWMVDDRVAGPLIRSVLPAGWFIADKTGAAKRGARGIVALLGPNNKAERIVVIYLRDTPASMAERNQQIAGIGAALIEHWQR
# Protocol: as §4, §5
# [5] = test system: K. pneumoniae H521 (KPC, SHV, TEM); test: Antibacterial activity (MIC), agar dilution per CLSI; format: cell-based; conditions: Klebsiella pneumoniae
# Protocol: as §1, §2, §3
# E. coli NCTC 13353 = test: Zone of inhibition, agar well, with and without ceftazidime; format: cell-based; conditions: for Diameter of Zone of Inhibition, Compound + Ceftazidime (10 μg/ml): E. coli NCTC 13353; for zone of inhibition at 0.25 µg/disc / zone of inhibition at 0.5 µg/disc / zone of inhibition at 1 µg/disc: Escherichia coli, NCTC13353, read-out: Diameter of Zone of Inhibition, Compound
# Protocol: (§6) In a typical experiment, two sets of plates containing growth media (Molten Mueller Hilton Agar) and bacterial strains were prepared. One set of plates was taken as control (without ceftazidime) and other set contained ceftazidime. The media was allowed to solidify and wells were punched later, into which varying concentrations of compounds according to the invention were poured. A two-fold serial dilution range of each of the compounds according to invention was prepared and 50 μl of each of the dilution was added into the punched well. The plates were then incubated at 37° C. for 18 hours in BOD incubator and diameters of zone of inhibition were measured after the completion of the incubation.
# (§7) The Table 6 provides the antibacterial activity of the combination comprising compounds according to invention and ceftazidime. The compounds according to invention were tested at 0.12, 0.25, 0.5 and 1 μg/well.
# E. coli M50 = test: as above; format: cell-based; conditions: for Diameter of Zone of Inhibition, Compound + Ceftazidime (10 μg/ml): E. coli M50; for zone of inhibition at 0.25 µg/disc / zone of inhibition at 0.5 µg/disc / zone of inhibition at 1 µg/disc: Escherichia coli, M50, read-out: Diameter of Zone of Inhibition, Compound
# Protocol: as §6, §7
# [6] = test system: Class C beta-lactamase CMY/DHA (E. coli M50); test: Beta-lactamase enzyme inhibition (Nitrocefin, crude enzyme); format: biochemical
# Protocol: as §4, §5
# [7] = biological target: Class D beta-lactamase OXA 26 (A. baumannii NCTC 13303) (Acinetobacter baumannii, UniProt Q9F0V2); test: as above; format: biochemical; conditions: read-out: Beta-lactamase enzyme inhibition IC50, A. baumannii NCTC 13303 (OXA 26)
# Chain of Class D beta-lactamase OXA 26 (A. baumannii NCTC 13303) (Q9F0V2 entry or part of it): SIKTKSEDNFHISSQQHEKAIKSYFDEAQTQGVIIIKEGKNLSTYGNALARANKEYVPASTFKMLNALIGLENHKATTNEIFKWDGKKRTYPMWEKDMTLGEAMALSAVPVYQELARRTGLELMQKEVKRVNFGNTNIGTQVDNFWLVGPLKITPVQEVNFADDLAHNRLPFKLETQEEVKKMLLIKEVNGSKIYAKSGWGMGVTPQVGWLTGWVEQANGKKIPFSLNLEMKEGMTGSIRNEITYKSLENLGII
# Protocol: as §4
# [8] = NCTC13353, E. coli NCTC 13353 (CTX-M15, OXA-1), read-out: MIC
# [9] = Class D, read-out: Beta-lactamase enzyme inhibition IC50
# [10] = compound 0.25 μg/well + Ceftazidime 10 μg/ml
# [11] = compound 0.5 μg/well + Ceftazidime 10 μg/ml
# [12] = compound 1 μg/well + Ceftazidime 10 μg/ml
# [13] = compound […] + Ceftazidime 10 μg/ml
# [14] = Beta-lactamase enzyme inhibition IC50, Class D
# [15] = K. pneumoniae H521 (KPC, SHV, TEM), read-out: MIC
smiles,measurement,setting,value
"C[C@@H](O)[C@H]1C(=O)N2C(C(=O)O)=C(SCCN=CN)C[C@H]12 [Imipenem, imipenem, reference compound]",MIC,[1]; [8],0.25 µg/mL
"O=C(C[C@@H]1CCCNC1)NNC(=O)[C@@H]1CC[C@@H]2CN1C(=O)N2OS(=O)(=O)O [Example 5, (2S,5R)-sulfuric acid mono-{2-[N′-(2-(S)-piperidin-3-yl-acetyl)-hydrazinocarbonyl]-7-oxo-1,6-diaza-bicyclo[3.2.1]oct-6-yl}ester]",MIC,[2]; 18 h,1 µg/mL
same,IC50,[3]; [9],1730 nM
same,IC50,[4],160 nM
same,MIC,"[1]; NCTC13353, 18 h",0.5 µg/mL
same,MIC,[5]; 18 h,4 µg/mL
"O=C(CC1CNC1)NNC(=O)[C@@H]1CC[C@@H]2CN1C(=O)N2OS(=O)(=O)O [Example 2, (2S,5R)-sulfuric acid mono-{2-[N′-(2-azetidin-3-yl-acetyl)-hydrazinocarbonyl]-7-oxo-1,6-diaza-bicyclo[3.2.1]oct-6-yl}ester]",MIC,[2],2 µg/mL
same,"Diameter of Zone of Inhibition, Compound + Ceftazidime (10 μg/ml)",E. coli NCTC 13353; [10],24 mm
same,"Diameter of Zone of Inhibition, Compound + Ceftazidime (10 μg/ml)",E. coli NCTC 13353; [11],26 mm
same,"Diameter of Zone of Inhibition, Compound + Ceftazidime (10 μg/ml)",E. coli NCTC 13353; [12],30 mm
same,"Diameter of Zone of Inhibition, Compound + Ceftazidime (10 μg/ml)",E. coli NCTC 13353; [13],21 mm
same,zone of inhibition at 0.25 µg/disc,E. coli NCTC 13353,10 mm
same,zone of inhibition at 0.5 µg/disc,E. coli NCTC 13353,13 mm
same,zone of inhibition at 1 µg/disc,E. coli NCTC 13353,15 mm
same,"Diameter of Zone of Inhibition, Compound + Ceftazidime (10 μg/ml)",E. coli M50; [10],19 mm
same,"Diameter of Zone of Inhibition, Compound + Ceftazidime (10 μg/ml)",E. coli M50; [11],22 mm
same,"Diameter of Zone of Inhibition, Compound + Ceftazidime (10 μg/ml)",E. coli M50; [12],23.5 mm
same,"Diameter of Zone of Inhibition, Compound + Ceftazidime (10 μg/ml)",E. coli M50; [13],15 mm
same,zone of inhibition at 0.25 µg/disc,E. coli M50,9 mm
same,zone of inhibition at 0.5 µg/disc,E. coli M50,12 mm
same,zone of inhibition at 1 µg/disc,E. coli M50,15 mm
same,IC50,[3]; [14],6190 nM
same,IC50,[6],103 nM
same,IC50,[4],97 nM
same,MIC,[1]; NCTC13353,1 µg/mL
same,MIC,[5],4 µg/mL
"CC(C)(O/N=C(\C(=O)N[C@@H]1C(=O)N2C(C(=O)[O-])=C(C[n+]3ccccc3)CS[C@H]12)c1csc(N)n1)C(=O)O [Ceftazidime, ceftazidime, reference compound]",MIC,"[2]; K. pneomoniae S48 (NDM, SHV, TEM), read-out: MIC",> 32 µg/mL
same,MIC,[1]; [8],32 µg/mL
same,MIC,[5]; [15],> 32 µg/mL
"O=C(O)[C@H]1/C(=C/CO)O[C@@H]2CC(=O)N21 [Clavulanic acid, clavulanic acid, reference compound]",IC50,[7],> 10000 nM
same,IC50,[3]; [14],> 10000 nM
"O=C(CC1CNCCN1)NNC(=O)[C@@H]1CC[C@@H]2CN1C(=O)N2OS(=O)(=O)O (mixture of isomers) [Example 7, (2S,5R)-sulfuric acid mono-{2-[N′-(2-(RS)-piperazin-2-yl-acetyl)-hydrazinocarbonyl]-7-oxo-1,6-diaza-bicyclo[3.2.1]oct-6-yl}ester]",MIC,[2],2 µg/mL
same,IC50,[3]; [9],2840 nM
same,IC50,[6],70 nM
same,IC50,[4],67 nM
same,MIC,[1]; [8],2 µg/mL
same,MIC,[5]; [15],4 µg/mL
"O=C(C[C@@H]1CCCCN1)NNC(=O)[C@@H]1CC[C@@H]2CN1C(=O)N2OS(=O)(=O)O [Example 3, (2S,5R)-sulfuric acid mono-{2-[N′-(2-(S)-piperidin-2-yl-acetyl)-hydrazinocarbonyl]-7-oxo-1,6-diaza-bicyclo[3.2.1]oct-6-yl}ester]",MIC,[2],0.5 µg/mL
same,"Diameter of Zone of Inhibition, Compound + Ceftazidime (10 μg/ml)",E. coli NCTC 13353; [10],22 mm
same,"Diameter of Zone of Inhibition, Compound + Ceftazidime (10 μg/ml)",E. coli NCTC 13353; [11],27 mm
same,"Diameter of Zone of Inhibition, Compound + Ceftazidime (10 μg/ml)",E. coli NCTC 13353; [12],30 mm
same,"Diameter of Zone of Inhibition, Compound + Ceftazidime (10 μg/ml)",E. coli NCTC 13353; [13],20 mm
same,zone of inhibition at 0.25 µg/disc,E. coli NCTC 13353,14 mm
same,zone of inhibition at 0.5 µg/disc,E. coli NCTC 13353,15 mm
same,zone of inhibition at 1 µg/disc,E. coli NCTC 13353,17 mm
same,"Diameter of Zone of Inhibition, Compound + Ceftazidime (10 μg/ml)",E. coli M50; [10],17.5 mm
same,"Diameter of Zone of Inhibition, Compound + Ceftazidime (10 μg/ml)",E. coli M50; [11],20 mm
same,"Diameter of Zone of Inhibition, Compound + Ceftazidime (10 μg/ml)",E. coli M50; [12],22.5 mm
same,"Diameter of Zone of Inhibition, Compound + Ceftazidime (10 μg/ml)",E. coli M50; [13],14.5 mm
same,zone of inhibition at 0.25 µg/disc,E. coli M50,13 mm
same,zone of inhibition at 0.5 µg/disc,E. coli M50,16 mm
same,zone of inhibition at 1 µg/disc,E. coli M50,17 mm
same,IC50,[3]; [9],2110 nM
same,IC50,[6],52 nM
same,IC50,[4],74 nM
same,MIC,[1]; NCTC13353,0.25 µg/mL
same,MIC,[5],0.5 µg/mL
"O=C(C[C@H]1CCCCN1)NNC(=O)[C@@H]1CC[C@@H]2CN1C(=O)N2OS(=O)(=O)O [Example 4, (2S,5R)-sulfuric acid mono-{2-[N′-(2-(R)-piperidin-2-yl-acetyl)-hydrazinocarbonyl]-7-oxo-1,6-diaza-bicyclo[3.2.1]oct-6-yl}ester]",MIC,[2],2 µg/mL
same,IC50,[3]; [9],2930 nM
same,IC50,[6],56 nM
same,IC50,[4],170 nM
same,MIC,[1]; NCTC13353,2 µg/mL
same,MIC,[5],4 µg/mL
"O=C(CC1CCNCC1)NNC(=O)[C@@H]1CC[C@@H]2CN1C(=O)N2OS(=O)(=O)O [Example 6, (2S,5R)-sulfuric acid mono-{2-[N′-(2-piperidin-4-yl-acetyl)-hydrazinocarbonyl]-7-oxo-1,6-diaza-bicyclo[3.2.1]oct-6-yl}ester]",MIC,[2],1 µg/mL
same,IC50,[3]; [9],1620 nM
same,IC50,[6],37 nM
same,IC50,[4],60 nM
same,MIC,[1]; NCTC13353,0.5 µg/mL
same,MIC,[5],2 µg/mL
